From patent US20210267197A1, “PEPTIDES SIMILAR TO THE NATURAL PEPTAIBOL TRICHOGIN GA IV WITH PHYTOSANITARY ACTIVITIES” (UNIVERSITA' DEGLI STUDI DI PADOVA, priority 2018, published 2021)

Columns and labels:
Botrytis cinerea [1] = test: B. cinerea spore viability / germination assay with resazurin; type: cell-based; settings: for Concentration effective in vitro in inhibiting the germination of fungal spores with respect to the untreated control for at least 3 days: Botrytis cinerea; for Time for which spore germination of B. cinerea is inhibited: limited by duration of the experiment
Plasmopara viticola = settings: for Prevention of development of the disease and production of sporangia of P. viticola: 50 μM aqueous solution, disks of vine leaves
Description: The histogram represents the average incidence (±standard error) of infections from P. viticola 12 days after inoculation obtained by performing at least 3 independent biological replicates. […] The incidence is calculated as a percentage ratio of the leaf disks showing the sporulation of the pathogen compared to the total of inoculated disks.
Glera vine leaves were inoculated with sporangia from the oomycete Plasmopara viticola, the causal agent of vine peronospora. The disks infected and then treated with peptides were incubated at 20/22° C. in conditions of high humidity (>92% RH) and in the dark (optimal conditions for the development of the disease) until the end of the experiment.

Penicillium expansum = test: In vitro inhibition of fungal spore germination, Penicillium expansum; type: cell-based; settings: for Time for which spore germination of P. expansum is inhibited: peptide at 15 μM, limited by duration of the experiment; for Concentration effective in vitro in inhibiting the germination of fungal spores with respect to the untreated control for at least 3 days: Penicillium expansum
Penicillium digitatum = test: In vitro inhibition of fungal spore germination, Penicillium digitatum; type: cell-based; settings: for Time for which spore germination of P. digitatum is inhibited: peptide at 15 μM, limited by duration of the experiment; for Concentration effective in vitro in inhibiting the germination of fungal spores with respect to the untreated control for at least 3 days: Penicillium digitatum
Penicillium italicum = test: In vitro inhibition of fungal spore germination, Penicillium italicum; type: cell-based; settings: for Concentration effective in vitro in inhibiting the germination of fungal spores with respect to the untreated control for at least 3 days: Penicillium italicum; for Time for which spore germination of Penicillium italicum is inhibited: peptide at 15 μM, limited by duration of the experiment
Pyricularia oryzae = type: cell-based
Botrytis cinerea [2] = test: Bean leaves inoculated with Botrytis cinerea; type: in vivo
Fusarium graminearum = type: cell-based
B. cinerea = test: Rot symptoms from B. cinerea on vine leaves; type: in vivo, Botrytis cinerea; settings: 50 μM

## 1-octanoyl-Aib-Gly-Leu-Aib-Lys(HCl)-Lys(HCl)-Leu-Lol [PEP4-corto]
Botrytis cinerea [1]
  Concentration effective in vitro in inhibiting the germination of fungal spores with respect to the untreated control for at least 3 days: 3 µM
Plasmopara viticola
  Prevention of development of the disease and production of sporangia of P. viticola: almost completely prevents the development of the disease and the production of sporangia

## 1-octanoyl-Aib-Lys(HCl)-Lys(HCl)-Leu-Aib-Gly-Ile-Leu-NH2 [PEP4-corto2-rink]
Botrytis cinerea [1]; peptide at 15 μM, listed as Pep4-corto2-rink
  Time for which spore germination of B. cinerea is inhibited: 8 days
Penicillium expansum; listed as Pep4-corto2-rink
  Time for which spore germination of P. expansum is inhibited: 15 days
Penicillium digitatum; listed as Pep4-corto2-rink
  Time for which spore germination of P. digitatum is inhibited: 15 days
Penicillium italicum
  Concentration effective in vitro in inhibiting the germination of fungal spores with respect to the untreated control for at least 3 days: 15 µM
Penicillium italicum; listed as Pep4-corto2-rink
  Time for which spore germination of Penicillium italicum is inhibited: 15 days

## 1-octanoyl-Aib-Gly-Leu-Aib-Lys(HCl)-Lys(HCl)-Leu-Aib-Gly-Ile-Lol [PEP4]
Botrytis cinerea [1]; 50 μM, conidia 5×10^5/ml in PDB
  Germination of conidia of B. cinerea: germination of the conidia is not observed
Botrytis cinerea [1]
  Concentration effective in vitro in inhibiting the germination of fungal spores with respect to the untreated control for at least 3 days: 3 µM
Botrytis cinerea [1]; peptide at 3 μM
  Time for which spore germination of B. cinerea is inhibited: at least 7 days
Penicillium expansum
  Concentration effective in vitro in inhibiting the germination of fungal spores with respect to the untreated control for at least 3 days: 15 µM
Penicillium digitatum
  Concentration effective in vitro in inhibiting the germination of fungal spores with respect to the untreated control for at least 3 days: 15 µM
Penicillium italicum
  Concentration effective in vitro in inhibiting the germination of fungal spores with respect to the untreated control for at least 3 days: 15 µM
Pyricularia oryzae
  Concentration effective in vitro in inhibiting the germination of fungal spores with respect to the untreated control for at least 3 days: 15 µM
Pyricularia oryzae; 15 μM
  Inhibition of spore germination of Pyricularia oryzae: effectively inhibit the spore germination
Botrytis cinerea [2]; 50 μM aqueous solution, for at least seven days (duration of the experiment)
  Protection of bean leaves against infection by Botrytis cinerea: protects the bean leaves against the infection caused by Botrytis cinerea
Plasmopara viticola; 30 μM, 12 days after inoculation
  Incidence of the disease (leaf disks showing sporulation / total inoculated disks): < 20%
Plasmopara viticola
  Prevention of development of the disease and production of sporangia of P. viticola: almost completely prevents both the development of the disease and the production of sporangia
Plasmopara viticola; 50 μM, limited by duration of the experiment
  Time of protection against P. viticola (no disease / no sporangia): 15 days

## 1-octanoyl-Aib-Gly-Leu-Aib-Gly-Lys(HCl)-Leu-Aib-Gly-Ile-Lol [Peptide K6-Lol]
Botrytis cinerea [1]
  Concentration effective in vitro in inhibiting the germination of fungal spores with respect to the untreated control for at least 3 days: 15 µM
Penicillium expansum
  Concentration effective in vitro in inhibiting the germination of fungal spores with respect to the untreated control for at least 3 days: 15 µM
Penicillium digitatum
  Concentration effective in vitro in inhibiting the germination of fungal spores with respect to the untreated control for at least 3 days: 15 µM

## 1-octanoyl-Aib-Gly-Leu-Aib-Lys(HCl)-Lys(HCl)-Leu-Aib-Gly-Ile-Leu-NH2 [PEP4-rink]
Botrytis cinerea [1]
  Concentration effective in vitro in inhibiting the germination of fungal spores with respect to the untreated control for at least 3 days: 3 µM
Botrytis cinerea [1]; peptide at 3 μM
  Time for which spore germination of B. cinerea is inhibited: at least 14 days
Botrytis cinerea [1]; peptide at 15 μM
  Time for which spore germination of B. cinerea is inhibited: at least 21 days
Penicillium expansum
  Concentration effective in vitro in inhibiting the germination of fungal spores with respect to the untreated control for at least 3 days: 15 µM
Penicillium digitatum
  Concentration effective in vitro in inhibiting the germination of fungal spores with respect to the untreated control for at least 3 days: 15 µM
Fusarium graminearum
  Concentration effective in vitro in inhibiting the germination of fungal spores with respect to the untreated control for at least 3 days: 15 µM
Botrytis cinerea [2]; 15 μM, 7 days after inoculation
  Reduction in the incidence of rot symptoms from B. cinerea on bean leaves: 90%
Botrytis cinerea [2]; 50 μM
  Reduction in the incidence of B. cinerea (rot symptoms) on bean leaves: 95%
B. cinerea
  Reduction in the incidence of rot symptoms from B. cinerea on vine leaves: 70%

## 1-octanoyl-Aib-Gly-Leu-Aib-Lys(HCl)-Lys(HCl)-Leu-Leu-NH2 [PEP4-corto1-rink]
Penicillium expansum
  Time for which spore germination of P. expansum is inhibited: for 6 days (duration of the experiment)
Penicillium expansum; listed as Pep4-cortol-rink
  Time for which spore germination of P. expansum is inhibited: 6 days
Penicillium digitatum
  Time for which spore germination of P. digitatum is inhibited: for 6 days (duration of the experiment)
Penicillium digitatum; listed as Pep4-cortol-rink
  Time for which spore germination of P. digitatum is inhibited: 6 days
Penicillium italicum
  Concentration effective in vitro in inhibiting the germination of fungal spores with respect to the untreated control for at least 3 days: 15 µM
  Time for which spore germination of Penicillium italicum is inhibited: for 6 days (duration of the experiment)
Penicillium italicum; listed as Pep4-cortol-rink
  Time for which spore germination of Penicillium italicum is inhibited: 6 days

## 1-octanoyl-Aib-Lys(HCl)-Leu-Aib-Lys(HCl)-Gly-Leu-Aib-Gly-Ile-Lol [Peptide K25]
Penicillium digitatum
  Concentration effective in vitro in inhibiting the germination of fungal spores with respect to the untreated control for at least 3 days: 15 µM
  Time for which spore germination of P. digitatum is inhibited: of Penicillium digitatum for more than 5 days
